Assay results: patent EP0551518A1, “QUINOLINECARBOXYLIC ACID DERIVATIVE” (NIPPON SHINYAKU COMPANY, LIMITED, priority 1990, dated 1992)
Converted amounts (≈) assume the structure as drawn.

Columns and labels:
Format in all cases: cell-based
[1] = test system: Staphylococcus epider-midis IFO 12993; assay: Determination of minimal inhibitory concentration of growth (MIC)-1, agar plate dilution method; conditions: Staphylococcus, IFO12993, 18 h, Staphylococcus epider-midis IFO 12993; agar plate dilution, 10⁶ CFU/ml, 37°C, 18 hours; read-out: MIC
Method: (§1) Method: MIC was determined by the agar plate dilution method in accordance with the standard protocol of Japan Society of Chemotherapy (cf. Chemotherapy 29 (1), 76-79, 1981). Each bacterial culture obtained by 18-hour incubation in a sensitivity assay bouillon medium at 37°C was diluted to 10⁶ CFU/ml with the same medium. Using a microplanter, a sensitivity assay agar medium containing the test drug was inoculated with the diluted culture and incubated at 37°C for 18 hours. The MIC value was then determined. As reference drugs, 6-fluoro-1-methyl-4-oxo-7-(1-piperazinyl)-4H-[1,3]thiazeto[3,2-a]quinoline-3-carboxylic acid (referred to as control), ciprofloxacin (CPFX) and ofloxacin (OFLX) were used.

[2] = test system: Bacillus subtilis ATCC 6633; assay: as above; conditions: ATCC6633; Bacillus subtilis ATCC 6633; agar plate dilution, 10⁶ CFU/ml, 37°C, 18 hours; read-out: MIC
Method: as §1

[3] = test system: Micrococcus luteus ATCC 9341; assay: as above; conditions: ATCC9341; Micrococcus luteus ATCC 9341; agar plate dilution, 10⁶ CFU/ml, 37°C, 18 hours; read-out: MIC
Method: as §1

[4] = test system: Staphylococcus aureus Smith; assay: as above; conditions: Staphylococcus aureus Smith; agar plate dilution, 10⁶ CFU/ml, 37°C, 18 hours; read-out: MIC
Method: as §1

[5] = test system: Staphylococcus aureus OWPH 1984 (MRSA); assay: as above; conditions: Staphylococcus aureus, MRSA, 18 h, Staphylococcus aureus OWPH 1984 (MRSA); agar plate dilution, 10⁶ CFU/ml, 37°C, 18 hours; read-out: MIC
Method: as §1

[6] = test system: Enterococcus faecalis ATCC 29212; assay: as above; conditions: ATCC29212; Enterococcus faecalis ATCC 29212; agar plate dilution, 10⁶ CFU/ml, 37°C, 18 hours; read-out: MIC
Method: as §1

[7] = test system: Proteus vulgaris HX-19; assay: as above; conditions: Proteus vulgaris, HX19, 18 h, Proteus vulgaris HX-19; agar plate dilution, 10⁶ CFU/ml, 37°C, 18 hours; read-out: MIC
Method: as §1

[8] = test system: Pseudomonas aeruginosa IFO 3445; assay: as above; conditions: Pseudomonas aeruginosa, IFO3445, 18 h, Pseudomonas aeruginosa IFO 3445; agar plate dilution, 10⁶ CFU/ml, 37°C, 18 hours; read-out: MIC
Method: as §1

[9] = test system: Staphylococcus aureus OWPH 2125 (MRSA, PCA^r ); assay: as above; conditions: Staphylococcus aureus, MRSA, 18 h, Staphylococcus aureus OWPH 2125 (MRSA, PCA^r); agar plate dilution, 10⁶ CFU/ml, 37°C, 18 hours; read-out: MIC
Method: as §1

[10] = test system: Escherichia coli KC-14; assay: as above; conditions: Escherichia coli, KC14, 18 h, 10⁶ CFU/ml, 37°C, read-out: MIC
Method: as §1

[11] = test system: Staphylococcus aureus 209-P JC-1; assay: as above; conditions: Staphylococcus aureus, 209P, 18 h, Staphylococcus aureus 209-P JC-1; agar plate dilution, 10⁶ CFU/ml, 37°C, 18 hours; read-out: MIC
Method: as §1

[12] = test system: S. aureus OWPH 1793; assay: Determination of minimal inhibitory concentration (MIC)-2, new quinolone-resistant MRSA; conditions: Staphylococcus aureus, OWPH1793, 18 h; S. aureus OWPH 1793, new quinolone-resistant and methicillin-resistant; same procedure as Test Example 1
Method: as §1
(§2) The antibacterial activity of the compounds obtained in Example 4, Example 25 and Example 26 of the present invention was assayed by the same procedure as in Test Example 1. As reference drugs, 6-fluoro-1-methyl-4-oxo-7-(1-piperazinyl)-4H-[1,3]-thiazeto[3,2-a]quinoline-3-carboxylic acid (referred to as Control), norfloxacin (NFLX) and tosufloxacin (TFLX) were used.

[13] = test system: S. aureus OWPH 1786; assay: as above; conditions: Staphylococcus aureus, OWPH1786, 18 h; S. aureus OWPH 1786, new quinolone-resistant and methicillin-resistant; same procedure as Test Example 1
Method: as §1, §2

[14] = test system: S. aureus Sh 44; assay: as above; conditions: Staphylococcus aureus, SH44, 18 h; S. aureus Sh 44, new quinolone-resistant and methicillin-resistant; same procedure as Test Example 1
Method: as §1, §2

[15] = test system: S. aureus OWPH 2127; assay: as above; conditions: Staphylococcus aureus, OWPH2127, 18 h; S. aureus OWPH 2127, new quinolone-resistant and methicillin-resistant; same procedure as Test Example 1
Method: as §1, §2

[16] = test system: S. aureus Sh 47; assay: as above; conditions: Staphylococcus aureus, SH47, 18 h; S. aureus Sh 47, new quinolone-resistant and methicillin-resistant; same procedure as Test Example 1
Method: as §1, §2

[17] = test system: S. aureus OWPH 1792; assay: as above; conditions: Staphylococcus aureus, OWPH1792, 18 h; S. aureus OWPH 1792, new quinolone-resistant and methicillin-resistant; same procedure as Test Example 1
Method: as §1, §2

[18] = test system: S. aureus OWPH 1799; assay: as above; conditions: Staphylococcus aureus, OWPH1799, 18 h; S. aureus OWPH 1799, new quinolone-resistant and methicillin-resistant; same procedure as Test Example 1
Method: as §1, §2

[19] = test system: S. aureus Sh 54; assay: as above; conditions: Staphylococcus aureus, SH54, 18 h; S. aureus Sh 54, new quinolone-resistant and methicillin-resistant; same procedure as Test Example 1
Method: as §1, §2

[20] = test system: S. aureus OWPH 1773; assay: as above; conditions: Staphylococcus aureus, OWPH1773, 18 h; S. aureus OWPH 1773, new quinolone-resistant and methicillin-resistant; same procedure as Test Example 1
Method: as §1, §2

[21] = test system: S. aureus Sh 2; assay: as above; conditions: Staphylococcus aureus, SH2, 18 h; S. aureus Sh 2, new quinolone-resistant and methicillin-resistant; same procedure as Test Example 1
Method: as §1, §2

[22] = test system: S. aureus OWPH 1796; assay: as above; conditions: Staphylococcus aureus, OWPH1796, 18 h; S. aureus OWPH 1796, new quinolone-resistant and methicillin-resistant; same procedure as Test Example 1
Method: as §1, §2

[23] = test system: S. aureus OWPH 1770; assay: as above; conditions: Staphylococcus aureus, OWPH1770, 18 h; S. aureus OWPH 1770, new quinolone-resistant and methicillin-resistant; same procedure as Test Example 1
Method: as §1, §2

[24] = test system: S. aureus OWPH 2133; assay: as above; conditions: Staphylococcus aureus, OWPH2133, 18 h; S. aureus OWPH 2133, new quinolone-resistant and methicillin-resistant; same procedure as Test Example 1
Method: as §1, §2

[25] = test system: S. aureus OWPH 2128; assay: as above; conditions: Staphylococcus aureus, OWPH2128, 18 h; S. aureus OWPH 2128, new quinolone-resistant and methicillin-resistant; same procedure as Test Example 1
Method: as §1, §2

[26] = test system: S. aureus OWPH 2124; assay: as above; conditions: Staphylococcus aureus, OWPH2124, 18 h; S. aureus OWPH 2124, new quinolone-resistant and methicillin-resistant; same procedure as Test Example 1
Method: as §1, §2

[27] = test system: S. aureus OWPH 2134; assay: as above; conditions: Staphylococcus aureus, OWPH2134, 18 h; S. aureus OWPH 2134, new quinolone-resistant and methicillin-resistant; same procedure as Test Example 1
Method: as §1, §2

[28] = test system: S. aureus Sh 8; assay: as above; conditions: Staphylococcus aureus, SH8, 18 h; S. aureus Sh 8, new quinolone-resistant and methicillin-resistant; same procedure as Test Example 1
Method: as §1, §2

MIC [1] [µg/mL]	MIC [2] [µg/mL]	MIC [3] [µg/mL]	MIC [4] [µg/mL]	MIC [5] [µg/mL]	MIC [6] [µg/mL]	MIC [7] [µg/mL]	MIC [8] [µg/mL]	MIC [9] [µg/mL]	MIC [10] [µg/mL]	MIC [11] [µg/mL]	MIC [12] [µg/mL]	MIC [13] [µg/mL]	MIC [14] [µg/mL]	MIC [15] [µg/mL]	MIC [16] [µg/mL]	MIC [17] [µg/mL]	MIC [18] [µg/mL]	MIC [19] [µg/mL]	MIC [20] [µg/mL]	SMILES	other results
0.006 (≈ 0.016 µM)	≤ 0.006	0.2 (≈ 0.534 µM)	≤ 0.006	0.012 (≈ 0.0321 µM)	0.05 (≈ 0.134 µM)	0.025 (≈ 0.0668 µM)	0.2 (≈ 0.534 µM)	0.012 (≈ 0.0321 µM)	0.05 (≈ 0.134 µM)	≤ 0.006	0.39 (≈ 1.04 µM)	0.39 (≈ 1.04 µM)	0.2 (≈ 0.534 µM)	0.39 (≈ 1.04 µM)	0.39 (≈ 1.04 µM)	0.39 (≈ 1.04 µM)	0.39 (≈ 1.04 µM)	0.2 (≈ 0.534 µM)	0.2 (≈ 0.534 µM)	CC1Sc2c(C(=O)O)c(=O)c3cc(F)c(-c4ccc(N)cc4)c(F)c3n21 (centres unmarked) [Example 25, 7-(4-Aminophenyl)-6,8-difluoro-1-methyl-4-oxo-4H-[1,3]thiazeto[3,2-a]quinoline-3-carboxylic acid]	MIC [21]: 0.39 µg/mL (≈ 1.04 µM); MIC [22]: 0.2 µg/mL (≈ 0.534 µM); MIC [23]: 0.1 µg/mL (≈ 0.267 µM); MIC [24]: 0.39 µg/mL (≈ 1.04 µM); MIC [25]: 0.39 µg/mL (≈ 1.04 µM); MIC [26]: 0.39 µg/mL (≈ 1.04 µM); MIC [27]: 0.2 µg/mL (≈ 0.534 µM); MIC [28]: 0.2 µg/mL (≈ 0.534 µM)
0.025 (≈ 0.0673 µM)	≤ 0.006	0.78 (≈ 2.1 µM)	0.012 (≈ 0.0323 µM)	0.025 (≈ 0.0673 µM)	0.2 (≈ 0.539 µM)	0.39 (≈ 1.05 µM)	3.13 (≈ 8.43 µM)	0.1 (≈ 0.269 µM)	0.78 (≈ 2.1 µM)	0.025 (≈ 0.0673 µM)	1.56 (≈ 4.2 µM)	0.78 (≈ 2.1 µM)	0.78 (≈ 2.1 µM)	1.56 (≈ 4.2 µM)	0.78 (≈ 2.1 µM)	1.56 (≈ 4.2 µM)	1.56 (≈ 4.2 µM)	0.78 (≈ 2.1 µM)	0.39 (≈ 1.05 µM)	COc1c(-c2ccccc2)c(F)cc2c(=O)c(C(=O)O)c3n(c12)C(C)S3 (centres unmarked) [Example 26, 6-Fluoro-8-methoxy-1-methyl-4-oxo-7-phenyl-4H-[1,3]thiazeto[3,2-a]quinoline-3-carboxylic acid]	MIC [21]: 1.56 µg/mL (≈ 4.2 µM); MIC [22]: 0.78 µg/mL (≈ 2.1 µM); MIC [23]: 0.39 µg/mL (≈ 1.05 µM); MIC [24]: 1.56 µg/mL (≈ 4.2 µM); MIC [25]: 1.56 µg/mL (≈ 4.2 µM); MIC [26]: 0.39 µg/mL (≈ 1.05 µM); MIC [27]: 0.78 µg/mL (≈ 2.1 µM); MIC [28]: 0.78 µg/mL (≈ 2.1 µM)
